Test results reported in PMC5845537 (Frontiers in Pharmacology, 2018).
Where two headings read alike, the source gives them in different places.

Assays:
Sprague-Dawley rats = assay: Rat object recognition (OR) task after subchronic PCP; type: in vivo; details: p < 0.05
Protocol: Subchronic PCP treatment: The subPCP administration regimen used in rats was conducted as described in ([Goetghebeur and Dias, 2009]), which is a reliable method for inducing deficits in our hands. Rats in the subPCP experiments received injections of 5 mg/mL PCP or vehicle (saline) s.c. at a 1 mL/kg injection volume twice per day for 7 days. […] The mouse subPCP regimen was conducted as described in [Pedersen et al. (2014)]. Briefly, mice received vehicle or PCP (1.3 mg/mL concentration, 10 mL/kg injection volume) s.c once per day for 14 days followed by a 7-day washout prior to experimentation.
The behavioral procedures for the rat OR task were conducted as described in [du Jardin et al. (2014)]. […] OR task sessions were recorded by a digital camera situated above the open field. Exploration time for each object was recorded with a stopwatch from the videos. […]
The primary dependent measure for the OR and object placement tasks was a novel object or novel placement preference score, which were calculated from raw object investigation times using the following equation: Preference Score = ITN/(ITN + ITF)^∗100, where ITN represents the investigation time for the novel object or placement, and ITF represents the investigation for the familiar object or placement. Total exploration times from the information and test trials were analyzed for OP and OR experiments. […]

GABAA receptor = assay: Ex vivo autoradiography, GABAA receptor saturation binding ([3H]muscimol), medial prefrontal cortex; set-up: species or system rat; details: PCP/vortioxetine group vs all other treatment groups
Source text: Rats used in ex vivo autoradiography (EVA) experiments were randomly assigned to one of four experimental groups characterized by either subchronic saline or PCP (as described above) along with either vehicle or vortioxetine-infused food (1.8 g vortioxetine/kg food weight, as described in the attentional set shifting task). On day 8 of PCP withdrawal, rats were anesthetized using CO2 and killed by decapitation. Brains were quickly and gently removed from the skull, flash frozen on powdered dry ice, and stored at -20°C until sectioning. Later, 12 μm coronal sections were collected from an area ranging from approximately +4.2 mm to +2.3 mm anterior to Bregma ([Paxinos and Watson, 1998]) using a cryostat (MicroM, Germany) and were thaw-mounted on glass microscope slides. This range of coronal slices was chosen in order to study the prelimbic and infralimbic subregions of the medial prefrontal cortex, given the importance of these regions in tests of executive function such as the attentional set shifting task ([Ng et al., 2007]). After the tissue mounted on the microscope slides had dried thoroughly (in order to reduce damage from freezing), slides were packed into slide boxes with desiccator pellets, and stored at -20°C for use in EVA saturation binding and competition experiments.
Each of the EVA procedures used in this study are variations on a similar theme. On the day of an experiment, slide-boxes were defrosted under a constant stream of air at room temperature until the boxes were dry and equilibrated with the environment in terms of temperature. This step was undertaken in order to ensure brain tissue was not damaged by frosting due to a sudden change in humidity. Prior to any binding experiments, slides were preincubated in the appropriate preincubation buffer and dried at room temperature. Subsequently, tissue was incubated in an assay buffer containing a radioligand appropriate for the receptor of interest, then rinsed in assay buffer, and dried overnight in a vacuum desiccator. Specific information on the contents of the preincubation buffers, assay buffers and other assay conditions are listed in Table 2. Finally, slides were opposed to a tritium-sensitive phosphor screen (Fuji imaging plate, GE Healthcare, Pittsburgh, PA, United States) for 5 days before being read in a phosphorimager (Typhoon FLA7000, GE Healthcare). Analysis methods are listed below under statistical analyses.
In saturation binding experiments, the concentration of the relevant radioligand in the assay buffer was systematically varied in order to determine the KD and Bmax of the receptor in question. At each radioligand concentration, the non-specific binding was determined on a separate slide by including a high concentration of a non-radioactive competitor ligand in the assay buffer along with the radioligand. For GABAA receptor saturation binding experiments, [^3H]muscimol was examined in quarter log steps ranging from 0.56 to 300 nM. For GABAB receptor saturation binding experiments, [^3H]CGP54626 was examined in quarter log steps ranging from 0.17 to 100 nM.
For saturation binding studies, the primary dependent measures were pKD and Bmax. […] A linear regression was performed to determine the relationship between intensity and bound radioactivity (measured on the standards in units of μCi/g). […] These optical intensity values were transformed into bound radioactivity (expressed as nCi/mg) measurements by interpolation from the standard curve noted above. […]

5-HT3 receptor = details: 2014, cited from earlier work

Row | Compound | OR performance (novel object preference score) (Sprague-Dawley rats; subPCP alone vs vehicle-treated controls) | attenuation of subPCP-induced OR impairment (preference score) (Sprague-Dawley rats; subPCP-treated rats, acute 10 mg/kg 1 h s.c.) | effect of treatment on [3H]muscimol affinity for the GABAA receptor (GABAA receptor) | occupancy at the 5-HT3 receptor (5-HT3 receptor; 1 mg/kg acute dose, ref Leiser et al.) | occupancy at 5-HT3 receptors (5-HT3 receptor; 10 mg/kg 1 h s.c., full occupancy, ref Leiser et al.) [%] | occupancy at 5-HT3 receptors (5-HT3 receptor; subchronic dose used in the mouse OR and object placement tasks, ref Wallace et al., Waller et al., 2017)
1 | Cl.c1ccc(C2(N3CCCCC3)CCCCC2)cc1 [PCP, 1-(1-phenylcyclohexyl)-piperidine hydrochloride] | significant impairments | – | – | – | – | –
2 | Cc1ccc(Sc2ccccc2N2CCNCC2)c(C)c1 [vortioxetine] | – | significantly attenuated | small but significant reduction | full occupancy | ≥ 80 | full occupancy
